Measured values taken from paper PMC7076710, “Synthesis, Identification, and Structure–Activity Relationship Analysis of GATA4 and NKX2-5 Protein–Protein Interaction Modulators” (Journal of Medicinal Chemistry, 2019).
Where two headings read alike, the source gives them in different places.

Columns and labels:
Assay type in all cases: cell-based
[1] = molecular target: T1, NKX2-5 transcriptional activity (Mus musculus, UniProt P42582); experiment: NKX2-5 luciferase reporter assay (3xNKE reporter, COS-1 cells); details: COS-1; for activity at 3 µM: read-out: NKX.3µM
T1 construct: expressed in transfected cells; host or cells: COS-1
T1 sequence (P42582 whole entry): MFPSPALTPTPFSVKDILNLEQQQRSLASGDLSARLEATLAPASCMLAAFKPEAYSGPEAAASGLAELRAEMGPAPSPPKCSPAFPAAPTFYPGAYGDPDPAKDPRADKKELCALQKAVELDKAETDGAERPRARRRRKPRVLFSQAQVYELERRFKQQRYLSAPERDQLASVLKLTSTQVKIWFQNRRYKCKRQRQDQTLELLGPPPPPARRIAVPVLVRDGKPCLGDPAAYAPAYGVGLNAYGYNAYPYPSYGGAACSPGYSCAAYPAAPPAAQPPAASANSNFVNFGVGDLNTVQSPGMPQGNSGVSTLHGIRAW
Protocol: (§1) To screen compounds for the GATA4–NKX2-5 interaction, we have developed a luciferase reporter assay based on their property to activate gene transcription synergistically through the NKX2-5 binding site on DNA.[28] In this assay, we transfected mammalian COS-1 cells with protein expression vectors for GATA4 and NKX2-5 proteins together with artificial luciferase reporter vector containing three high affinity binding sites for NKX2-5 (NKE). […] All 257 compounds were tested in two concentrations, 3 and 10 μM. Compounds either inhibited, enhanced, or had no effect on the GATA4–NKX2-5 transcriptional synergy. To investigate the selectivity of the active compounds, we tested their effects on NKX2-5 transcriptional activity by using the same luciferase reporter vector as in transcriptional synergy assay with three NKE sites (Figure 3B). Furthermore, we used GATA luciferase reporter assay to examine if compounds have an effect on GATA4 transcriptional activity. In this assay, we cotransfected the cells with a GATA4 protein expression vector and a reporter vector with tandem GATA4 binding sites (Figure 3C). Previously we have reported that compound 1 inhibited the GATA4–NKX2-5 transcriptional synergy at micromolar concentrations (IC50 = 3 μM).[29]
(§2) The plasmids expressing mouse GATA4 protein, pMT2-GATA4, and empty pMT2 were gifts from D. B. Wilson (Department of Pediatrics, St. Louis Children’s Hospital, St. Louis, MO).[44] The plasmids expressing mouse NKX2-5 protein, pMT2-NKX2-5, have been described earlier.[28] The luciferase reporter plasmid used in GATA4–NKX2-5 transcriptional synergy assay and NKX transcriptional assay, pGL3-3xHA, contains three high affinity binding sites for NKX2-5.[28] The luciferase reporter plasmid used in GATA transcriptional assay, NP-112, contains tandem GATA-sites and minimal promoter of rat brain natriuretic peptide (BNP) gene.[45] The pGL3-BNP luciferase reporter containing −534/+4 bp rat BNP proximal promoter described previously was used in hypertrophy assay.[46]
(§3) The primary screening assay of compounds’ effect on GATA4–NKX2-5 transcriptional synergy and COS-1 cell culturing has been described earlier.[33] […] (Kinnunen et al., unpublished observation). Briefly, COS-1 cells were seeded at 14 000 cells/well in Isoplate-96 microplates (PerkinElmer, Turku, Finland) and grown overnight. The cells were transfected with the luciferase reporter plasmid pGL3-3xHA 100 ng/well and equal amounts of expression plasmids pMT2-GATA4 and pMT2-NKX2-5 total 50 ng/well. To verify the synergistic effect, the cells were transfected with pMT2-GATA4 or pMT2-NKX2-5 25 ng/well, and the total DNA concentration was adjusted to 50 ng/well with empty pMT2 plasmid. In NKX2-5 and GATA4 luciferase reporter assays, the cells were transfected with reporter plasmid pGL3-3xHA or NP-112 (100 ng/well) and expression plasmid pMT2-NKX2-5 or pMT2-GATA4 (25 ng/well). The ratio of DNA/transfection reagent (Fugene 6, Promega) was 1:3 in all assays. The transfections were performed in serum and antibiotics free media for 6 h. The cells were treated with compounds or vehicle (0.1% DMSO) for 24 h, and the luminescence was measured using neolite Reporter Gene Assay System (PerkinElmer, Turku, Finland) and Victor2 plate reader (PerkinElmer, Turku, Finland).
(§4) Raw luciferase data were analyzed in Excel, and clear outliers were removed from triplicates by using the Grubb’s test. Data analysis was performed using R.[49] The luciferase data were first normalized on the basis of the combined mean value of controls. For data visualization and creation of figures, the following R packages were used: ggplot2, cowplot, RColorBrewer, and pheatmap. The heatmaps of the toxicity data were produced with GraphPad Prism 7.00 (GraphPad Software, La Jolla, CA). Statistical significance of luciferase reporter assay data was evaluated by randomized block analysis of variance followed by Dunnett’s post hoc test. […]

[2] = molecular target: T2, GATA4 transcriptional activity (Mus musculus, UniProt Q08369); experiment: GATA4 luciferase reporter assay (tandem GATA-site reporter, COS-1 cells); details: COS-1
T2 construct: expressed in transfected cells; host or cells: COS-1
T2 sequence (Q08369 whole entry): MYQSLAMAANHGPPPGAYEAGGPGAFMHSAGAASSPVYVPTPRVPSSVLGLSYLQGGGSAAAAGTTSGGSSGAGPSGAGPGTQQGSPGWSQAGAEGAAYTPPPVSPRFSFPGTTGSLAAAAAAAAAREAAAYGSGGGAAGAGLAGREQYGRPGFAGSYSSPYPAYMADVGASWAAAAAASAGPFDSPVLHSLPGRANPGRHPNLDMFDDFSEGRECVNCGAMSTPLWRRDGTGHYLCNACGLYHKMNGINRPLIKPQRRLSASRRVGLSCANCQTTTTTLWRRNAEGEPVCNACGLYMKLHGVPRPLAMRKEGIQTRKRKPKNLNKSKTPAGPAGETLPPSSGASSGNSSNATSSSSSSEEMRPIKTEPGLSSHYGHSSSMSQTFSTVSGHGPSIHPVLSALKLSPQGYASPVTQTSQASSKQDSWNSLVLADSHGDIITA
Protocol: as §1, §2, §3, §4

[3] = tested on: COS-1 cells; experiment: MTT assay (cell viability); details: cell viability
Description: (§5) To investigate the toxicity as a potential cause of decreased or increased activity in luciferase reporter gene assays, we tested a set of 40 active compounds in the COS-1 cell line used for the luciferase assays. Concentration-dependent toxic effects were investigated using the lactate dehydrogenase (LDH) assay to detect necrosis and the 3-(4,5-dimethylthiazol-2-yl)-2,5-diphenyltetrazolium bromide (MTT) assay as a measure of cell viability. […] For the data analysis, compounds were classified as toxic (Figures 5 and 7) if they induced a >10% decrease in cell viability in the MTT assay at the concentration of 10 μM. The most toxic compounds (35a, 35d, 54, 58, and 63–65) in the MTT assay all contained a phenyl substituent in the southern part ring, while the ortho-nitrophenyl-derivative 39g and the phenyl-substituted thiophene 47t were nontoxic. Higher flexibility in the central parts of the ethers (35a, 35d) and N-acylated amines (58, 64) might contribute to their toxicity, because less rigid compounds are more likely to have affinity to various biological targets. Such interactions can cause toxicity. To confirm and validate the results from MTT assays, we tested three nontoxic (2, 47s, and 72) and three toxic (1, 35a, and 58) compounds in a cell viability assay measuring intracellular ATP content.
(§6) Figure 5 Effects of selected compounds on COS-1 cell viability. (A) Compound-induced necrosis was quantified with the LDH assay after a 24-h compound exposure. The data are presented as cytotoxicity percentage (% of maximal LDH release). (B) Cell viability was analyzed with the MTT assay after a 24-h compound exposure. (A,B) The data are means from 2–3 independent experiments with 3 replicate wells in each and are presented as % of control (vehicle-treated cells). The compounds have been grouped on the basis of the structure of the central part: a, amide; b, ether; c, N-acylated amine; d, amine; and e, imine. (C) The effects of selected compounds on cell viability as determined by ATP content after a 24-h compound exposure. The data are mean + SEM from three independent experiments and are presented as % of vehicle-treated cells.
(§7) For toxicity screening, COS-1 cells were cultured in DMEM (Sigma-Aldrich, Steinheim, Germany) supplemented with 10% fetal bovine serum, 100 U/mL penicillin, and 100 μg/mL streptomycin (all from Gibco, Thermo Scientific) at 37 °C with 5% CO2. The cells were plated on 96-well plates at 10 000 cells/well and exposed to test compounds at a concentration range of 1–30 μM on the following day. After a 24-h compound treatment, lactate dehydrogenase (LDH) and 3-(4,5-dimethylthiazol-2-yl)-2,5-diphenyltetrazolium bromide (MTT) assays were carried out as described previously.[48] Briefly, LDH activity was determined from 50 μL samples of cell culture medium, to which 50 μL of substrate solution [1.3 mM β-nicotinamide-adenine dinucleotide, 660 μM iodonitrotetrazolium, 54 mM L(+)-lactic acid, and 280 μM phenazine methosulfate in 0.2 M Tris-HCl, pH 8.2, all from Sigma-Aldrich] was added, and the plate was incubated for 30 min at room temperature. The reaction was stopped with acetic acid (final concentration 333 mM), and absorbance was measured at 490 nm. The absorbance values of the samples were normalized to maximal LDH release and spontaneous LDH release determined on the same plate. Mitochondrial metabolic activity was quantified by incubating the cells with 0.5 mg/mL MTT (from Sigma-Aldrich) for 2 h at 37 °C with 5% CO2, whereafter culture medium was removed and formazan crystals were dissolved in DMSO. The absorbance was measured at 550 nm, and absorbance at 650 nm was subtracted as background.

[4] = molecular target: T3, GATA4–NKX2-5 transcriptional synergy (Mus musculus, UniProt P42582+Q08369); experiment: GATA4–NKX2-5 transcriptional synergy luciferase reporter assay (3xNKE reporter, COS-1 cells); details: COS-1
T3 construct: expressed in transfected cells; host or cells: COS-1
T3 sequence (Q08369 whole entry): as above
T3 sequence (P42582 whole entry): as the sequence (P42582 whole entry) above

[5] = tested on: COS-1 cells; experiment: LDH assay (necrosis)
Description: as §5, §6, §7

[6] = luciferase reporter activity relative to control
[7] = 10 µM, luciferase reporter activity relative to control
[8] = luciferase reporter activity, % of control

Q: For CCN(CC)c1ccc(NC(=O)c2cnoc2-c2ccccc2)cc1 [Compound 47d], which activity at 3 µM [1, 6] is on record?
A: 56.3%

Q: And the activity at 3 µM [2, 6]?
A: 95.2%

Q: And the MTT.1µM [3]?
A: 107.01

Q: And the MTT.3µM [3]?
A: 95.86

Q: What about the MTT.10µM [3] of the same molecule?
A: 90.87

Q: What about the MTT.30µM [3] of the same molecule?
A: 93.95

Q: And the activity at 3 µM [4, 6]?
A: 65.4%

Q: What about the LDH.1µM [5] of the same molecule?
A: 3.03

Q: And the LDH.3µM [5]?
A: 0.88

Q: And the LDH.10µM [5]?
A: -0.44

Q: What about the LDH.30µM [5] of the same molecule?
A: 0.42

Q: For CCN(CC)c1ccc(CN(C(=O)C(F)(F)F)c2c(-c3ccccc3)noc2C)cc1 [Compound 30c], which activity at 3 µM [1, 6] is on record?
A: 113%

Q: And the activity at 3 µM [2, 6]?
A: 92.4%

Q: What about the MTT.1µM [3] of the same molecule?
A: 100.8

Q: And the MTT.3µM [3]?
A: 97.78

Q: What about the MTT.10µM [3] of the same molecule?
A: 91.24

Q: What about the MTT.30µM [3] of the same molecule?
A: 75.4

Q: And the activity at 3 µM [4, 6]?
A: 100%

Q: And the LDH.1µM [5]?
A: 1.2

Q: And the LDH.3µM [5]?
A: 0

Q: And the LDH.10µM [5]?
A: -0.99

Q: And the LDH.30µM [5]?
A: -1.08

Q: What does the source list for CCN(CC)c1ccc(NC(=O)c2c[nH]nc2-c2ccccc2)cc1 [SI89]?
A: activity at 3 µM [1, 6]: 101%; activity at 10 µM ([1]; 10 µM, luciferase reporter activity relative to control, read-out: NKX.10µM): 89%; activity at 3 µM [2, 6]: 103%; activity at 10 µM [2, 7]: 81.8%; MTT.1µM [3]: 100.37; MTT.3µM [3]: 105.87; MTT.10µM [3]: 100.53; MTT.30µM [3]: 96.92; activity at 3 µM [4, 6]: 80.7%; activity at 10 µM [4, 7]: 93.5%; LDH.1µM [5]: 2.32; LDH.3µM [5]: 1.68; LDH.10µM [5]: 1.11; LDH.30µM [5]: -1.15

Q: What does the source list for CCN(CC)c1ccc(NC(=O)c2c(-c3ccc(F)cc3)noc2C)cc1 [Compound 39d, N-[4-(Diethylamino)phenyl]-3-(4-fluorophenyl)-5-methylisoxazole-4-carboxamide]?
A: activity at 3 µM [1, 8]: 73.3%; activity at 3 µM [2, 8]: 94.4%; MTT.1µM ([3]; COS-1 cells): 99.41%; MTT.3µM ([3]; COS-1 cells): 97.69%; MTT.10µM ([3]; COS-1 cells): 91.72%; MTT.30µM ([3]; COS-1 cells): 87.25%; activity at 3 µM [4, 8]: 61.4%; LDH.1µM ([5]; COS-1 cells): 3.12; LDH.3µM ([5]; COS-1 cells): -0.19; LDH.10µM ([5]; COS-1 cells): -0.49; LDH.30µM ([5]; COS-1 cells): 2.51
